# Measurements as given in ChEMBL document CHEMBL4507299, “Data for DCP probe PF-04554878” (2021).
# Key:
# [1] = target: Death-associated protein kinase 2 (Homo sapiens) (UniProt Q9UIK4)
# [2] = target: Ephrin type-B receptor 6 (Homo sapiens) (UniProt O15197)
# [3] = target: Calcium/calmodulin-dependent protein kinase type 1D (Homo sapiens) (UniProt Q8IU85)
# [4] = target: Serine/threonine-protein kinase RIO1 (Homo sapiens) (UniProt Q9BRS2)
# [5] = target: Activin receptor type-1B (Homo sapiens) (UniProt P36896)
# [6] = target: 1-phosphatidylinositol 3-phosphate 5-kinase (Homo sapiens) (UniProt Q9Y2I7)
# [7] = tested on: Epidermal growth factor receptor (Homo sapiens), P00533 [UNDEFINED MUTATION]
# [8] = target: Beta-1 adrenergic receptor (Homo sapiens) (UniProt P08588); conditions: Compound concentration 10.0 uM
# Chain of Beta-1 adrenergic receptor (Homo sapiens) (P08588 whole entry, looked up): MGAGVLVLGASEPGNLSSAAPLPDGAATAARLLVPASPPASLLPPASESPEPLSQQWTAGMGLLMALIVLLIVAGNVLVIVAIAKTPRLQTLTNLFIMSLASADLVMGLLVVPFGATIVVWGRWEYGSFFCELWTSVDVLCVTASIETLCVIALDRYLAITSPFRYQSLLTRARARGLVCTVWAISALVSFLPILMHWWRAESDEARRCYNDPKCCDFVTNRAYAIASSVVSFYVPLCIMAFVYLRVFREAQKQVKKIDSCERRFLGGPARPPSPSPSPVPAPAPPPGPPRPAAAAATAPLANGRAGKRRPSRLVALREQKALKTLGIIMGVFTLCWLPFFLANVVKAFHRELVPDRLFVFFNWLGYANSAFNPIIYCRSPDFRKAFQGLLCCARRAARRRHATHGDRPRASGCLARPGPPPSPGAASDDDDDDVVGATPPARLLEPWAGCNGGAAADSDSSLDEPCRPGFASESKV
# [9] = target: Serine/threonine-protein kinase SBK1 (Homo sapiens) (UniProt Q52WX2)
# Chain of Serine/threonine-protein kinase SBK1 (Homo sapiens) (Q52WX2 whole entry): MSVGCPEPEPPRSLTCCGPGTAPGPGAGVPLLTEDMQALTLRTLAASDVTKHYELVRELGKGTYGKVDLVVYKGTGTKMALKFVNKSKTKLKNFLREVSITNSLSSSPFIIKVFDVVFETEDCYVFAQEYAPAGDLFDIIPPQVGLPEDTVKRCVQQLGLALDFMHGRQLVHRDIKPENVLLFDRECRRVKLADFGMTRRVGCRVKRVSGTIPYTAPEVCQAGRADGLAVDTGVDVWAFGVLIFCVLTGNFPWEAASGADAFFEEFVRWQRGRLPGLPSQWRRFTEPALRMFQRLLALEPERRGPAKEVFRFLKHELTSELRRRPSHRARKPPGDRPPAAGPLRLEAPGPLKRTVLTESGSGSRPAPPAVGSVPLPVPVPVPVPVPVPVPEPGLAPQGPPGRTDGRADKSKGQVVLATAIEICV
# [10] = target: Death-associated protein kinase 1 (Homo sapiens) (UniProt P53355)
# [11] = target: Serine/threonine-protein kinase Nek10 (Homo sapiens) (UniProt Q6ZWH5)
# [12] = tested on: Phosphatidylinositol 4,5-bisphosphate 3-kinase catalytic subunit alpha isoform (Homo sapiens), P42336 [H1047L]
# [13] = target: High affinity nerve growth factor receptor (Homo sapiens) (UniProt P04629)
# [14] = tested on: Epidermal growth factor receptor (Homo sapiens), P00533 [L861Q]
# [15] = target: Atypical kinase COQ8A, mitochondrial (Homo sapiens) (UniProt Q8NI60)
# [16] = target: Serine/threonine-protein kinase 16 (Homo sapiens) (UniProt O75716)
# [17] = target: Maternal embryonic leucine zipper kinase (Homo sapiens) (UniProt Q14680)
# [18] = target: Serine/threonine-protein kinase PLK2 (Homo sapiens) (UniProt Q9NYY3)
# [19] = target: Mitogen-activated protein kinase 6 (Homo sapiens) (UniProt Q16659)
# Chain of Mitogen-activated protein kinase 6 (Homo sapiens) (Q16659 whole entry): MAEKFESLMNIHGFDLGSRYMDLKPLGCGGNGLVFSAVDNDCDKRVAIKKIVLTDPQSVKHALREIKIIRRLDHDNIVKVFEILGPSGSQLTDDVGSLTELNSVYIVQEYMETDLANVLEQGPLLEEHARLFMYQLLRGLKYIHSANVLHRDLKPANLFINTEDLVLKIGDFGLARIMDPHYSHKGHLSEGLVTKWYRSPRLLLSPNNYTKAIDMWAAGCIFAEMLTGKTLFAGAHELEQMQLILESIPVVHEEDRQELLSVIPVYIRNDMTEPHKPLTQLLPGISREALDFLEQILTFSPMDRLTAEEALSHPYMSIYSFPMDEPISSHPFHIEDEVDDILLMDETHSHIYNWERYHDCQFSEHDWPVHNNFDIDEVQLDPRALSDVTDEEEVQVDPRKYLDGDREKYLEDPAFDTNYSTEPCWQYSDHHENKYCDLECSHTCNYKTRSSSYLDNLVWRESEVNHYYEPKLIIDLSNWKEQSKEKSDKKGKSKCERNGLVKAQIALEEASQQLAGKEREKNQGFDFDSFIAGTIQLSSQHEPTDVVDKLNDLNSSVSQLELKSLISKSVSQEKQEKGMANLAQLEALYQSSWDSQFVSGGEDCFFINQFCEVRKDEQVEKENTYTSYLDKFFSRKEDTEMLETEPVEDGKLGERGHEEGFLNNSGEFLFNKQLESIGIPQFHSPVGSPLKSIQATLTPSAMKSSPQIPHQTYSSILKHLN
# [20] = tested on: Proto-oncogene tyrosine-protein kinase receptor Ret (Homo sapiens), P07949 [V804L]
# Chain of Proto-oncogene tyrosine-protein kinase receptor Ret (Homo sapiens), P07949 [V804L] (P07949 whole entry V804L): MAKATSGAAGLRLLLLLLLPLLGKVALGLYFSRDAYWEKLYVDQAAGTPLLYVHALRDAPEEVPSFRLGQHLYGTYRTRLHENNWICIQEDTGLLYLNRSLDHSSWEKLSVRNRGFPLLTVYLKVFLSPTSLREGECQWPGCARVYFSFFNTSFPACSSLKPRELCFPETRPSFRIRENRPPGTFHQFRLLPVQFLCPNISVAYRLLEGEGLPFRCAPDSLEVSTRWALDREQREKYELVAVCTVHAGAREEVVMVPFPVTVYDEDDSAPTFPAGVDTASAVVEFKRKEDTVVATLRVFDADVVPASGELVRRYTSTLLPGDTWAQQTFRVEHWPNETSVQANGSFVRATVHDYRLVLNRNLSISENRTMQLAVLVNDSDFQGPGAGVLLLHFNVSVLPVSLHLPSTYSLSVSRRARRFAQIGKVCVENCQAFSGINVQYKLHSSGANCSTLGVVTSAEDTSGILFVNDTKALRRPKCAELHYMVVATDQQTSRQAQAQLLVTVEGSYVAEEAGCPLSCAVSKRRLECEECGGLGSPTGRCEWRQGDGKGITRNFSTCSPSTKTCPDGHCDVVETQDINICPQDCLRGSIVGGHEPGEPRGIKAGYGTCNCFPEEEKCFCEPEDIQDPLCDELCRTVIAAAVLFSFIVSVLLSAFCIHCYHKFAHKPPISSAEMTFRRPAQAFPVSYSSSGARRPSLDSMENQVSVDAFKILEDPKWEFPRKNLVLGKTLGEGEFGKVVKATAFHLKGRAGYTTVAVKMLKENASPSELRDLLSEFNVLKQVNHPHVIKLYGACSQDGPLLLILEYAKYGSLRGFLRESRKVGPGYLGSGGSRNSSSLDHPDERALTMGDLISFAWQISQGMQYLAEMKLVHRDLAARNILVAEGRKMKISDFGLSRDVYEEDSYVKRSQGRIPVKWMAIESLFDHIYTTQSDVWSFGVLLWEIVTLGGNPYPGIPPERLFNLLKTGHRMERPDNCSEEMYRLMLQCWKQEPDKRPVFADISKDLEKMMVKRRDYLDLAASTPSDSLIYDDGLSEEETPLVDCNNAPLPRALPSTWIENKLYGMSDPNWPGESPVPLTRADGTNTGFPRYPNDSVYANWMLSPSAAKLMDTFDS
# [21] = tested on: Mast/stem cell growth factor receptor Kit (Homo sapiens), P10721 [V559D]
# [22] = target: T1, Inhibitor of nuclear factor kappa-B kinase subunit beta (Homo sapiens) (UniProt O14920)
# T1 sequence (whole entry): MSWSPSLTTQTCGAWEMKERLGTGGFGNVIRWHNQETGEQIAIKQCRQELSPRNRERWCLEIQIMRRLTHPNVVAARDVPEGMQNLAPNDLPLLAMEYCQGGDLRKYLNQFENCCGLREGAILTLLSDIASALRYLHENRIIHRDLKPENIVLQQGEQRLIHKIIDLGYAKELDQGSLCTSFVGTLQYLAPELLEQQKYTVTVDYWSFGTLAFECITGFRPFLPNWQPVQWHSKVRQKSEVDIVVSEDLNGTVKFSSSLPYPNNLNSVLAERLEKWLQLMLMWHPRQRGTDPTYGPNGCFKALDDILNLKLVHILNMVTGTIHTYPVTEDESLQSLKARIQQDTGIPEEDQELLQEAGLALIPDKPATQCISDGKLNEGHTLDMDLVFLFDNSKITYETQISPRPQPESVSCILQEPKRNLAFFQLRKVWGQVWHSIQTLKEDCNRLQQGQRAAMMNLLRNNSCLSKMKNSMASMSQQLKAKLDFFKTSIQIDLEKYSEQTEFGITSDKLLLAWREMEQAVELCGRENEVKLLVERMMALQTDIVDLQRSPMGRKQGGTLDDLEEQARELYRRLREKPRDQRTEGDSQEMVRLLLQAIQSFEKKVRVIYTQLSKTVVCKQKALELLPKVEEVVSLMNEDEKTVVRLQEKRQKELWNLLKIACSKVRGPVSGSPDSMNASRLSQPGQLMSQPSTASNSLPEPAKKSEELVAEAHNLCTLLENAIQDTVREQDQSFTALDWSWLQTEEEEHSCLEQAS
# [23] = target: Receptor-interacting serine/threonine-protein kinase 4 (Homo sapiens) (UniProt P57078)
# [24] = target: Serine/threonine-protein kinase ULK1 (Homo sapiens) (UniProt O75385)
# [25] = target: Testis-specific serine/threonine-protein kinase 1 (Homo sapiens) (UniProt Q9BXA7)
# Chain of Testis-specific serine/threonine-protein kinase 1 (Homo sapiens) (Q9BXA7 whole entry): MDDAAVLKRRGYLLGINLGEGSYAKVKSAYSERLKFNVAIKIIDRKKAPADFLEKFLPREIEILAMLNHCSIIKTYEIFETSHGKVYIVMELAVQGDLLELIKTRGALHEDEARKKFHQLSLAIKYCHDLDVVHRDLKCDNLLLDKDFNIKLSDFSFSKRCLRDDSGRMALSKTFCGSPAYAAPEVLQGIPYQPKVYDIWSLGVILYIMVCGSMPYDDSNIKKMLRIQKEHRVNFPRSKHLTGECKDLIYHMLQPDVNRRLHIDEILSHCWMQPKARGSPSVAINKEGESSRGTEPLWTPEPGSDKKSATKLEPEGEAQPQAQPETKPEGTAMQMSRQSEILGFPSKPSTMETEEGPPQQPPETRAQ
# [26] = target: BDNF/NT-3 growth factors receptor (Homo sapiens) (UniProt Q16620)
# [27] = target: Alpha-1D adrenergic receptor (Homo sapiens) (UniProt P25100); conditions: Compound concentration 10.0 uM
# Chain of Alpha-1D adrenergic receptor (Homo sapiens) (P25100 whole entry): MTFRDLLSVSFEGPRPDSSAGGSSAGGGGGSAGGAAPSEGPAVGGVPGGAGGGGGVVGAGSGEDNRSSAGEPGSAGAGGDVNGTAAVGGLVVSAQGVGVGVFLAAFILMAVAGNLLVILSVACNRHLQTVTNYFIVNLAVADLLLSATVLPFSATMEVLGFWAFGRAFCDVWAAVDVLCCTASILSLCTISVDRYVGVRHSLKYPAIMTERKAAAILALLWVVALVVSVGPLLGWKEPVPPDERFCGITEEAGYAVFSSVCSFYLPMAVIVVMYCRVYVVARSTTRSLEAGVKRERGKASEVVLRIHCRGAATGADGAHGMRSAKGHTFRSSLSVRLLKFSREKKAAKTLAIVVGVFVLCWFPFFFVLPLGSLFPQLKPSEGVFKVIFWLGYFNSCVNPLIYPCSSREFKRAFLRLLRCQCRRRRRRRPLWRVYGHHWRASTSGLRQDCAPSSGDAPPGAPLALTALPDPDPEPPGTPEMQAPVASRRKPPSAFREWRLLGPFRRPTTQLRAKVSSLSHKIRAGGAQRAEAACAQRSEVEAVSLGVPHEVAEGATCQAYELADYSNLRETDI
# [28] = target: Serine/threonine-protein kinase TBK1 (Homo sapiens) (UniProt Q9UHD2)
# [29] = target: Tyrosine-protein kinase Yes (Homo sapiens) (UniProt P07947)
# Chain of Tyrosine-protein kinase Yes (Homo sapiens) (P07947 2-543 limits assumed): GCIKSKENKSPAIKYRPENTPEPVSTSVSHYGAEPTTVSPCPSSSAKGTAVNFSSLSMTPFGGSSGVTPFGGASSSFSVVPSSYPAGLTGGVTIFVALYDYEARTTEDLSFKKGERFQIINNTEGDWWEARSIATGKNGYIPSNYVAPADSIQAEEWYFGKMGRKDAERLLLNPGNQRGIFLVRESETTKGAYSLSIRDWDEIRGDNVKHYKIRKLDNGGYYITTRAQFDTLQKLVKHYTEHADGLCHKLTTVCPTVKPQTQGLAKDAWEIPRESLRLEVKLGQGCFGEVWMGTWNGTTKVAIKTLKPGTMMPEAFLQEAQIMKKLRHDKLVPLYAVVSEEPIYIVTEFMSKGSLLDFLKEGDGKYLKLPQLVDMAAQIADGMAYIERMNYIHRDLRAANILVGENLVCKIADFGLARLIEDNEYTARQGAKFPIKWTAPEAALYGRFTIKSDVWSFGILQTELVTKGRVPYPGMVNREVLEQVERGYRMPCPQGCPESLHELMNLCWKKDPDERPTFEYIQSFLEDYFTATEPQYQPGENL
# [30] = target: Dual specificity mitogen-activated protein kinase kinase 2 (Homo sapiens) (UniProt P36507)
# [31] = tested on: Hepatocyte growth factor receptor (Homo sapiens), P08581 [M1250T]
# [32] = target: Ephrin type-A receptor 5 (Homo sapiens) (UniProt P54756)
# [33] = target: Activin receptor type-2A (Homo sapiens) (UniProt P27037)
# [34] = target: Mitogen-activated protein kinase kinase kinase 12 (Homo sapiens) (UniProt Q12852)
# [35] = target: D(4) dopamine receptor (Homo sapiens) (UniProt P21917); conditions: Compound concentration 10.0 uM
# Chain of D(4) dopamine receptor (Homo sapiens) (P21917 whole entry): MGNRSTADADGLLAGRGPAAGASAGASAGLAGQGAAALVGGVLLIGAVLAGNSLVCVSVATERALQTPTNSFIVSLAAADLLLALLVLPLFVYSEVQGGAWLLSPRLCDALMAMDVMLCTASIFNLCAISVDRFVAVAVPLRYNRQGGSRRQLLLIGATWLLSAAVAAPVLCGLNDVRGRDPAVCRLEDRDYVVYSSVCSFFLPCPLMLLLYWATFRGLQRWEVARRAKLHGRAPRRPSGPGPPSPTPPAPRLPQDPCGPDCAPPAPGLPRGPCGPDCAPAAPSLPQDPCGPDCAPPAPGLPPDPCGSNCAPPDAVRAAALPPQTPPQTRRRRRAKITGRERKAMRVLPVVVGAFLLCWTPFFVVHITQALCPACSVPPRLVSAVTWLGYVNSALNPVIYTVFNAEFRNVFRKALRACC
# [36] = Compound concentration 100.0 nM
# [37] = Compound concentration 1000.0 nM
# Chain of Death-associated protein kinase 2 (Homo sapiens) (Q9UIK4 whole entry, looked up): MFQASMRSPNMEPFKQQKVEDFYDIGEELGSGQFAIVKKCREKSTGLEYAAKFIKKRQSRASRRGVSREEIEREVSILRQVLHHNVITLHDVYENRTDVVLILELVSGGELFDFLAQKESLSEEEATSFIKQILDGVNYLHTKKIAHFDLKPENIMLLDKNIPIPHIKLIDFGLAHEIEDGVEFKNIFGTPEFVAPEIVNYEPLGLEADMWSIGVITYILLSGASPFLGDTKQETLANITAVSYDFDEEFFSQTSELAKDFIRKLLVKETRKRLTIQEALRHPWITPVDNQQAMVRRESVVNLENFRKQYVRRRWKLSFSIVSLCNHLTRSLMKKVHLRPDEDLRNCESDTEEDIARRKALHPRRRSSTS
smiles,measurement,setting,value
CNC(=O)c1ccc(Nc2ncc(C(F)(F)F)c(NCc3nccnc3N(C)S(C)(=O)=O)n2)cc1 [DEFACTINIB],residual activity,[1]; [36],68%
same,residual activity,[2]; [36],100%
same,residual activity,[3]; [36],100%
same,residual activity,[4]; [36],100%
same,residual activity,[5]; [36],69%
same,residual activity,[6]; [36],100%
same,residual activity,[7]; [36],82%
same,inhibition,[8],-0.83%
same,residual activity,[9]; [36],67%
same,residual activity,[10]; [36],82%
same,residual activity,[11]; [36],100%
same,residual activity,[12]; [36],32%
same,residual activity,[13]; [36],13%
same,residual activity,[14]; [36],100%
same,residual activity,[15]; [36],98%
same,residual activity,[16]; [36],7.7%
same,residual activity,[17]; [36],23%
same,residual activity,[18]; [36],77%
same,residual activity,[19]; [36],71%
same,residual activity,[20]; [36],30%
same,residual activity,[21]; [36],92%
same,residual activity,[22]; [36],100%
same,residual activity,[23]; [36],89%
same,residual activity,[24]; [36],47%
same,residual activity,[25]; [36],64%
same,residual activity,[26]; [36],21%
same,inhibition,[27],4.13%
same,residual activity,[28]; [36],75%
same,residual activity,[29]; [36],100%
same,residual activity,[30]; [36],100%
same,residual activity,[31]; [36],63%
same,residual activity,[32]; [36],64%
same,residual activity,[33]; [36],90%
same,residual activity,[34]; [36],83%
same,inhibition,[35],7.8%
CN(c1ccnc(CNc2nc(Nc3ccc4c(c3)CC(=O)N4)ncc2C(F)(F)F)n1)S(C)(=O)=O [PF-00911705],residual activity,[1]; [37],58%
same,residual activity,[2]; [37],54%
same,residual activity,[3]; [37],79%
same,residual activity,[4]; [37],9.7%
same,residual activity,[5]; [37],26%
same,residual activity,[6]; [37],100%
same,residual activity,[7]; [37],57%
same,inhibition,[8],16.4%
same,residual activity,[9]; [37],34%
same,residual activity,[10]; [37],15%
same,residual activity,[11]; [37],90%
same,residual activity,[12]; [37],92%
same,residual activity,[13]; [37],10%
same,residual activity,[14]; [37],70%
same,residual activity,[15]; [37],79%
same,residual activity,[16]; [37],1.5%
same,residual activity,[17]; [37],40%
same,residual activity,[18]; [37],0.5%
same,residual activity,[19]; [37],66%
same,residual activity,[20]; [37],21%
same,residual activity,[21]; [37],75%
same,residual activity,[22]; [37],78%
same,residual activity,[23]; [37],6%
same,residual activity,[24]; [37],1.2%
same,residual activity,[25]; [37],56%
same,residual activity,[26]; [37],21%
same,inhibition,[27],15.9%
same,residual activity,[28]; [37],21%
same,residual activity,[29]; [37],77%
same,residual activity,[30]; [37],82%
same,residual activity,[31]; [37],6.8%
same,residual activity,[32]; [37],82%
same,residual activity,[33]; [37],100%
same,residual activity,[34]; [37],48%
same,inhibition,[35],2.34%
